Source: patent US20070225334A1, “Methods for treating cognitive and other disorders” (Wyeth, priority 2006, published 2007)

Experiments:
5-HT2C receptor [1] = target: T1, 5-HT2C receptor (Homo sapiens, UniProt P28335); assay: 5-HT2C receptor affinity; format: binding
T1 sequence (P28335 33-458): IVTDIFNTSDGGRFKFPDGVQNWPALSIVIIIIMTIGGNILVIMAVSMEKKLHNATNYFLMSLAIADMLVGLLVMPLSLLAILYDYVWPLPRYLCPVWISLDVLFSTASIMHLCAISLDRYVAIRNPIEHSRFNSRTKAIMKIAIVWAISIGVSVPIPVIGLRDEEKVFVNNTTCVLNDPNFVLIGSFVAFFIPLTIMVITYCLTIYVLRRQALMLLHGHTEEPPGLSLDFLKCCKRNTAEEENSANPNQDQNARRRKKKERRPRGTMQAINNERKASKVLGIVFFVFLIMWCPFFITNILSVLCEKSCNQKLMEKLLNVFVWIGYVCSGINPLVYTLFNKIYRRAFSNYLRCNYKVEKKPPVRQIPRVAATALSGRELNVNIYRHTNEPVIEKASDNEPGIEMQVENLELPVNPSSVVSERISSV

5-HT2C receptor [2] = target: T1, 5-HT2C receptor; assay: 5-HT2C receptor agonist function; format: biochemical
[3] = test system: schedule-induced polydipsia; assay: Schedule-induced polydipsia model of obsessive-compulsive disorder (adjunctive drinking); format: in vivo, Sprague-Dawley rat; conditions: for reduction in adjunctive drinking behavior: relative to vehicle
Excerpt: In this model, a food pellet is delivered once per minute for a two-hour period. A water bottle is available in the test chamber. […] This excessive manifestation of a normal behavior (drinking) provides face validity to the model. […] Most importantly, clinically effective drugs for the treatment of obsessive-compulsive disorder decrease adjunctive drinking.
Male Sprague-Dawley rats weighing 300-400 grams were individually housed in an AALAC-accredited facility that was maintained on a 12-h light dark cycle (lights on at 0600 h) with freely available water. All in vivo studies were performed in accordance to the Guide for the Care and Use of Laboratory Animals as adopted and promulgated by the National Institutes of Health (Pub. 85-23, 1985). Rats were maintained at approximately 85% of their free-feeding body weights by food presented during the session and by post-session feeding.
Procedure Experimental sessions were conducted in a standard operant conditioning chamber placed inside a ventilated sound-attenuating shell that was equipped with white noise to mask extraneous sounds (Med Associates, Georgia, Vt.). A food trough was on the front panel of the chamber and a water bottle was mounted to the side panel. Experimental sessions were 120 minutes in duration and were conducted five days per week (Monday through Friday). Test sessions occurred generally on Tuesdays and Fridays, with the remaining days serving as control days. For each session, one food pellet (Bioserv, 45 mg precision dustless pellet) was dispensed into the food trough each minute for the duration of the session, for a total of 120 pellets being delivered. This schedule of food presentation elicits an abnormal adjunctive drinking behavior in rats such that they consume and exaggerated volume of water, approximately 5-10 fold larger than under normal conditions. Compound 1 or vehicle was administered immediately prior to the start of the experimental session. Each dose of Compound 1 was tested on a separate day, with the appropriate control sessions being conducted prior to each test. At the end of the test session, the volume of water and the number of food pellets that each rat consumed were measured.
(§1) Water consumption was calculated and expressed as percent (%) of vehicle control intake. Results were analyzed using a one-way ANOVA with least significant difference (LSD) post-hoc test. […] Where appropriate, ED50 values (dose that decreases adjunctive water intake to 50% of vehicle values) were calculated using a logistic dose response analysis.

[4] = test system: normal eating and drinking behavior; assay: Modified procedure for normal feeding and drinking behavior (120 pellets at session start); format: in vivo, Sprague-Dawley rat; conditions: 1 mg/kg
Description: In order to determine if Compound 1 would affect normal eating and drinking behavior, Compound 1 or vehicle was tested under modified conditions. Under these modified conditions, 120 food pellets were placed into the food trough at the beginning of the session and no further food pellets were dispensed. At the end of the test session, the volume of water and the number of food pellets consumed by each rat were measured as described earlier.
as §1

[5] = test system: acetylcholine in medial prefrontal cortex; assay: In vivo microdialysis, acetylcholine in medial prefrontal cortex; design: species or system Sprague-Dawley rat; conditions: 1.7 mg/kg s.c.
Description: Animals: Adult male Sprague-Dawley rats (Charles River, Wilmington, Mass.) weighing 280-350 g at the time of surgery were used for all microdialysis experiments. Adult male Long-Evans rats (Charles River, Wilmington, Mass.) weighing 180-220 g were used for NOR studies. Rats were housed individually for recognition memory studies. All animals had free access to food and water and were group housed in the AAALAC-accredited facility that was maintained on a 12 h light dark cycle (lights on at 0600 h) for at least 1 week prior to surgery or behavioral testing. All in vivo studies were performed in accordance to the ‘Guide for the Care and Use of Laboratory Animals’ as adopted and promulgated by the National Institutes of Health (Pub. 85-23, 1985). […]
Analysis of Acetylcholine Dialysate levels of acetylcholine were determined using LC/MS/MS. […]
Acetylcholine data were quantified using peak area against an internal standard and acquired using Masslynx software (Micromass, Beverly, Mass., USA). The mean of the concentration of baseline samples was calculated and denoted as 0%. All sample values were expressed as a percent change from this pre-injection mean baseline value (% change from baseline). Neurochemical data, excluding pre-injection values, were analyzed by a two-way analysis of variance (ANOVA) with repeated measures (time). […]

[6] = test system: extracellular glutamate levels in the rat mPFC; assay: In vivo microdialysis, extracellular glutamate in mPFC; design: species or system Sprague-Dawley rat; conditions: 1.7 mg/kg s.c., acute, F(1,15)=4.76, P=0.0454 vs vehicle
Description: Animals: Adult male Sprague-Dawley rats (Charles River, Wilmington, Mass.) weighing 280-350 g at the time of surgery were used for all microdialysis experiments. Adult male Long-Evans rats (Charles River, Wilmington, Mass.) weighing 180-220 g were used for NOR studies. Rats were housed individually for recognition memory studies. All animals had free access to food and water and were group housed in the AAALAC-accredited facility that was maintained on a 12 h light dark cycle (lights on at 0600 h) for at least 1 week prior to surgery or behavioral testing. All in vivo studies were performed in accordance to the ‘Guide for the Care and Use of Laboratory Animals’ as adopted and promulgated by the National Institutes of Health (Pub. 85-23, 1985).
Stereotaxic Surgery Following induction of anesthesia with 3% halothane (Fluothane; Zeneca, Cheshire, UK), animals were secured in a stereotaxic frame with ear and incisor bars (David Kopf, Tujunga, Calif.). Anesthesia was maintained by continuous administration of halothane (1-2%) while a microdialysis guide cannula (CMA/12, CMA Microdialysis, Stockholm, Sweden) was implanted above the dorsal hippocampus (AP: −4.3 mm ML: −2.6 mm DV: −2.1 mm) or the medial prefrontal cortex (AP: 3.2 mm ML: −0.6 mm DV: −3.8 mm). […]
Dialysate (10 μL) was collected and analyzed for extracellular glutamate concentrations. […]

SMILES: NC[C@H]1Cc2cc(F)cc(-c3c(Cl)cccc3Cl)c2O1 (stereo in doubt) [Compound 1, (7-(2,6-dichlorophenyl)-5-fluoro-2,3-dihydrobenzofuran-2-yl)methanamine]
- Ki (5-HT2C receptor [1]): 0.37 nM
- EC50 (5-HT2C receptor [2]): 0.4 nM
- agonist character at the 5-HT2C receptor (5-HT2C receptor [2]): potent full agonist
- reduction in adjunctive drinking behavior ([3]; 0.3 mg/kg i.p., p=0.003): 45%
- rats not eating all food pellets presented ([3]; 1 mg/kg i.p., schedule-induced polydipsia session): one of the six rats did not eat all of the food pellets presented
- reduction in adjunctive drinking behavior ([3]; 1 mg/kg i.p., p<0.0001): 81%
- effect on adjunctive drinking behavior ([3]; 0.1-1 mg/kg, i.p., acute, F(3,20)=16.91, p<0.0001): dose-dependent decrease
- ED50 ([3]; Rattus norvegicus, ip, 95% CI: 0.22-0.57 mg/kg, read-out: ED50 (dose that decreases adjunctive water intake to 50% of vehicle values)): 0.36 mg/kg
- decrease in water consumption relative to vehicle controls ([4]; modified procedure (normal drinking)): 26%
- rats failing to eat all food pellets presented ([4]; modified procedure (normal feeding)): two of the six rats tested failed to eat all of the food pellets presented
- maximal increase in acetylcholine with respect to baseline [5]: 48%
- extracellular glutamate levels [6]: 132%
